Experimental data from patent US9926302B2, “Heteroaryl substituted heterocyclyl sulfones” (priority 2014, dated 2018).

Target: T1, Human CaV2.2 channels (Homo sapiens, UniProt Q00975)
T1 construct: expressed in transfected cells
Assay: Fluorescence assay for CaV2.2 channels using potassium depolarization to induce channel opening (FLIPR, Fluo 4)
Assay type: cell-based
Conditions: alternative assay buffer 30 mM KCl (inactivated channel state), HEK293 cells stably expressing human CaV2.2; for Activity Category: %-Inhib (CaV2.2) @3 μM @30 mM KCl: 3 μM test compound; for inhibition at 3 µM: HEK293, 3 μM test compound, read-out: Activity Category: %-Inhib (CaV2.2) @3 μM @30 mM KCl
Text: In the process, the Ca^2+ influx is quantified in the FLIPR assay with the aid of a Ca^2+-sensitive dye (type Fluo-4, Molecular Probes Europe BV, Leiden, the Netherlands) in a fluorescent imaging plate reader (FLIPR 3, Molecular Devices, Sunnyvale, USA), as described hereinafter.
2.1 Fluorescence Assay for CaV2.2 Channels Using Potassium Depolarization to Induce Channel Opening
Human CaV2.2 channels were stably expressed in HEK293 cells together with alpha2-delta and beta subunits of voltage gated calcium channels. In addition, an inwardly rectifying potassium channel (Kir2.3) was stably expressed in these cells to augment control of the cell membrane potential by the concentration of extracellular potassium ions. Raise of the extracellular potassium concentration leads to depolarization of the membrane potential and thus regulates the voltage dependent state of CaV2.2 channels. For preparation, cells were seeded in black poly-D-lysine coated 96-well plates (Becton Dickinson, Biocoat 4640) in 100 μL medium [500 mL DMEM/F-12 plus Glutamax (Invitrogen 31331-093) plus 5.5 mL MEM NEAA 100× (Invitrogen 11140-035) plus 50 mL FBS decomplemented (Invitrogen 10270-106) plus 200 μg/mL Geneticin (Invitrogen 10131-027) plus 50 μg/mL Hygromycin B (Invitrogen 10687-010) plus 2 μg/mL Blasticidin (anti-bl5b Invivo-Gen) plus 0.2 μg/mL Puromycin (A 11138-03)] at a cell density of 30.000 cells per well. Plates were incubated at 37° C. (5% CO2) for 20 to 23 h. On the day of experiment medium was discarded and cells were loaded with Fluo 4 by addition of 100 μL of basic assay buffer (10 mM HEPES, 1 mM KCl, 149 mM NaCl, 0.8 mM CaCl2, 1.7 mM MgCl2, 10 mM Glucose, 0.1% BSA. pH 7.4) containing 2 μM Fluo 4 (Molecular Probes; F-14201), 0.01% pluronic acid (Molecular Probes; P-6866) and 2.5 mM probenecid (Molecular Probes; P36400). Cells were incubated in the dark at 25° C. for 60 min. Then dye containing buffer was discarded and 100 μL basic (1 mM KCl) or alternative (30 mM KCl) assay buffer was added. The alternative assay buffer contained altered concentrations of KCl (30 mM) and NaCl (120 mM) and was used in order to promote the inactivated channel state. After that 25 μL of basic or alternative assay buffer with or without test compound were added and cells were incubated again in the dark at 25° C. for 15 min. Fluorescence intensity was measured on a FLIPR 3 instrument (Molecular Devices Corp., Sunnyvale, Calif.) with excitation at 480 nm and emission at 535 nm. After continuously reading fluorescence for 30 sec, 50 μL of basic assay buffer containing 210 mM KCl (NaCl omitted) were added for depolarization. Peak fluorescent signal intensity was determined and the amplitude of the peak signal, normalized to base line, was used to measure channel inhibition by test compounds.

T1 sequence (P54289 947-1103): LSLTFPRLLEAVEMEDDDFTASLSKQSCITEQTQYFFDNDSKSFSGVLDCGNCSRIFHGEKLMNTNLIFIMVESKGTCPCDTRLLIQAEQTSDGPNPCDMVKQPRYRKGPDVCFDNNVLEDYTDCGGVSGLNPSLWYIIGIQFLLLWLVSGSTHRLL
T1 sequence (P54289 25-946): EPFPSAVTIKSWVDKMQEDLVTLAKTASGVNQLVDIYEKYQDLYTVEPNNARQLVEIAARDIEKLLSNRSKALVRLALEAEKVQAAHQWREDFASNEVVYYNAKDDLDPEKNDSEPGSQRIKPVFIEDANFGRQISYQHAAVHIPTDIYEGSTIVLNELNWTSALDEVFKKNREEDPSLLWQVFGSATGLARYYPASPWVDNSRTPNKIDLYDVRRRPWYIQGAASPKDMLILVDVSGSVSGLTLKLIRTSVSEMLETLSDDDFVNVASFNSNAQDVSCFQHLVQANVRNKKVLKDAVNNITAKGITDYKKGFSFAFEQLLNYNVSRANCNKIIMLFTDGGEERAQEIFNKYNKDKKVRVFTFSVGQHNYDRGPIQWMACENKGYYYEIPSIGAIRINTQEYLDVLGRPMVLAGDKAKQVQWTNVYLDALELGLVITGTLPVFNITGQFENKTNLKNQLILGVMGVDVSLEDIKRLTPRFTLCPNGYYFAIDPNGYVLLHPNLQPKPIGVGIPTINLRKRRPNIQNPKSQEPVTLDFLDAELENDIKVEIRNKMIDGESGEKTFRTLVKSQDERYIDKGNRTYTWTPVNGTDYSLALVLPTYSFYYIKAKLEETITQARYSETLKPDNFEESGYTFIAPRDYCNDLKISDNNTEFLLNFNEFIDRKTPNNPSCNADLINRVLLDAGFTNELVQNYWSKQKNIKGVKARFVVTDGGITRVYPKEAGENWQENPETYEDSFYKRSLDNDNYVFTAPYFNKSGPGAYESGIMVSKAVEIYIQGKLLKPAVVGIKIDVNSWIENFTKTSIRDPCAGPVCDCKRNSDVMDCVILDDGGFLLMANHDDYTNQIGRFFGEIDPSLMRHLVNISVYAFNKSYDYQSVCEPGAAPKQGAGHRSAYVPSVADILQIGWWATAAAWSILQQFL
T1 sequence (P54284 whole entry, further chain): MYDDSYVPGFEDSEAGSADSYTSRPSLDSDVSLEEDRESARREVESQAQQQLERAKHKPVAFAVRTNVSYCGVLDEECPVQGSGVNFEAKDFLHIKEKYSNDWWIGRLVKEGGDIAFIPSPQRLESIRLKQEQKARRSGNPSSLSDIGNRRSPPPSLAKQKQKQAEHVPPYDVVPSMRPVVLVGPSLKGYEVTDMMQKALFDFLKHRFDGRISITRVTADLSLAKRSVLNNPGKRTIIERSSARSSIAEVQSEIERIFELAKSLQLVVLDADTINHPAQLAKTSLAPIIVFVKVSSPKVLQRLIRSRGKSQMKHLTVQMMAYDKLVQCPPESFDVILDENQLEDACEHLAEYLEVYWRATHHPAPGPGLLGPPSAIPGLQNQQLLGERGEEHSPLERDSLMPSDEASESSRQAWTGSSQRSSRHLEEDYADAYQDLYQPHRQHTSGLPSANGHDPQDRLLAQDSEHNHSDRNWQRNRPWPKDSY
T1 sequence (Q00975 whole entry): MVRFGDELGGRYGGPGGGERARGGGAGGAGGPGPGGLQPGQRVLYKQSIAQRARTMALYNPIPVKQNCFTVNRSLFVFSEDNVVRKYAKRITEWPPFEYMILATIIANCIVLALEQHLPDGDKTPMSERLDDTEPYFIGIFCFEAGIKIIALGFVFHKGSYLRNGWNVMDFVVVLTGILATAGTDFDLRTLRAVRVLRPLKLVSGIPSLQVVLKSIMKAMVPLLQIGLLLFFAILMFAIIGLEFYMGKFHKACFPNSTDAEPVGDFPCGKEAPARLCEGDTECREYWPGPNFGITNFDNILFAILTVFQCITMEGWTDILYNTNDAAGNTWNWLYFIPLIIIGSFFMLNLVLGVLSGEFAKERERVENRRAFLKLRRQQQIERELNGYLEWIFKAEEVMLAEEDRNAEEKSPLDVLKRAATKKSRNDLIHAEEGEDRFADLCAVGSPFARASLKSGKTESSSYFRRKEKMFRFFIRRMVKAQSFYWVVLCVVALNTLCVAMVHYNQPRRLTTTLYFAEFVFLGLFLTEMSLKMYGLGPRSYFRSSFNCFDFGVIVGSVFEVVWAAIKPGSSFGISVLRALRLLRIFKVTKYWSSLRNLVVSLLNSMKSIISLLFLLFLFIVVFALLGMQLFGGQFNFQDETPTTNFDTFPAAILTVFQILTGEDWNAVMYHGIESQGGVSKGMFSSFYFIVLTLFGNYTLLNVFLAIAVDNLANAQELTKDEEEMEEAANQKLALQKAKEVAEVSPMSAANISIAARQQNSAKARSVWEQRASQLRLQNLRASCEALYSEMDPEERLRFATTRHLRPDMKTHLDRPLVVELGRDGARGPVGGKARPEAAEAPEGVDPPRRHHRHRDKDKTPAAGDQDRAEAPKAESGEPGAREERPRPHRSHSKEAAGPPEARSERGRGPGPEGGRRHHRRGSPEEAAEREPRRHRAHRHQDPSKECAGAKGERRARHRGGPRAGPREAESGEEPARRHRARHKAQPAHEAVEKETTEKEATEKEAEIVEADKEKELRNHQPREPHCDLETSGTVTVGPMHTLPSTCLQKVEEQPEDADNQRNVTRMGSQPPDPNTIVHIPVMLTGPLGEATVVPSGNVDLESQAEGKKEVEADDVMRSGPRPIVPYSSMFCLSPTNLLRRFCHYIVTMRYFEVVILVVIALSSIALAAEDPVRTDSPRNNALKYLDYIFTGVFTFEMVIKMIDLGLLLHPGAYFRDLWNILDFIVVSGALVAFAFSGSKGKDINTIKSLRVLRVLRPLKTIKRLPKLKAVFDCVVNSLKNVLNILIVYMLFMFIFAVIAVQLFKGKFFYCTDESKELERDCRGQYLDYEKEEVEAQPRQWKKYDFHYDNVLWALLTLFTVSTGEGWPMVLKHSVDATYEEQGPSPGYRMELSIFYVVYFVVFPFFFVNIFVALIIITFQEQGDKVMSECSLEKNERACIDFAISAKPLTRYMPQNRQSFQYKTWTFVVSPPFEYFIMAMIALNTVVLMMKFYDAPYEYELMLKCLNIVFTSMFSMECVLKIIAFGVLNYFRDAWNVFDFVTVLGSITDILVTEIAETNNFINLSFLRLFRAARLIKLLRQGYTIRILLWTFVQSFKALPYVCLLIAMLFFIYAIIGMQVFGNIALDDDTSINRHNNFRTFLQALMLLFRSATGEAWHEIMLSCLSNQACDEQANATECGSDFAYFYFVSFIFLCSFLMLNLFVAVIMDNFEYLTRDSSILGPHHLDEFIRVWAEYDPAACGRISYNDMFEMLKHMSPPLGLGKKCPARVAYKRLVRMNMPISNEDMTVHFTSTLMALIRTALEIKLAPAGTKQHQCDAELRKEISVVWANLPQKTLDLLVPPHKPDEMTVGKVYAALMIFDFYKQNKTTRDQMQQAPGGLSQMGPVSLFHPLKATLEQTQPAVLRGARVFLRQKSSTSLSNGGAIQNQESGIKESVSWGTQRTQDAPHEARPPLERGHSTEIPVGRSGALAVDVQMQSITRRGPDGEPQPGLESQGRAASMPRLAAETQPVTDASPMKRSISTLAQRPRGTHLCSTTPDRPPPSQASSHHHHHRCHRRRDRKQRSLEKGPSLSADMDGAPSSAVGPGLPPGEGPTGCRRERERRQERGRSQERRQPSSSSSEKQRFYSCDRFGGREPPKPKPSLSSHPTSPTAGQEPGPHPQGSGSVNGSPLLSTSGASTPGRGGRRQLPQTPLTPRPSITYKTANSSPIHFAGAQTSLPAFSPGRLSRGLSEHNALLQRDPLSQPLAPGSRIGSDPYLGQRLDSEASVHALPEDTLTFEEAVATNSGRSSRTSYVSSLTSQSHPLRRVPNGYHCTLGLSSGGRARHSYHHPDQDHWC

SMILES | Activity Category: %-Inhib (CaV2.2) @3 μM @30 mM KCl | inhibition at 3 µM [%]
CC1(S(=O)(=O)c2cccc(C(F)(F)F)c2)CCOC(c2cncc(S(C)(=O)=O)c2)C1 (centres unmarked) [SC-100, 3-Methylsulfonyl-5-[4-methyl-4-[[3-(trifluoromethyl)phenyl]sulfonyl]-tetrahydro-pyran-2-yl]-pyridine] | C (%-Inhibition >40% up to ≤75%) | 
CC1(S(=O)(=O)c2cccc(C(F)(F)F)c2)CCOC(c2cncc(S(C)(=O)=O)c2)C1 (centres unmarked) [SC-101, 3-Methylsulfonyl-5-[4-methyl-4-[[3-(trifluoromethyl)phenyl]sulfonyl]-tetrahydro-pyran-2-yl]-pyridine] | B (%-Inhibition >75% up to ≤95%) | 
CC1(S(=O)(=O)c2cccc(C(F)(F)F)c2)CCOC(c2ccc(C3CC3)cn2)C1 (centres unmarked) [SC-103, 5-Cyclopropyl-2-[4-methyl-4-[[3-(trifluoromethyl)phenyl]sulfonyl]-tetrahydro-pyran-2-yl]-pyridine] |  | > 95
CC1(S(=O)(=O)c2cccc(C(F)(F)F)c2)CCOC(c2ccc(S(C)(=O)=O)cn2)C1 (centres unmarked) [SC-104, 5-Methylsulfonyl-2-[4-methyl-4-[[3-(trifluoromethyl)phenyl]sulfonyl]-tetrahydro-pyran-2-yl]-pyridine] |  | 75 to 95
CCC1(S(=O)(=O)c2cccc(C(F)(F)F)c2)CCOC(c2ccc(C(F)(F)F)cn2)C1 (centres unmarked) [SC-106, 2-[4-Ethyl-4-[[3-(trifluoromethyl)phenyl]sulfonyl]-tetrahydro-pyran-2-yl]-5-(trifluoromethyl)-pyridine] |  | > 95
CCC1(S(=O)(=O)c2cccc(C(F)(F)F)c2)CCOC(c2ccc(C(F)(F)F)cn2)C1 (centres unmarked) [SC-107, 2-[4-Ethyl-4-[[3-(trifluoromethyl)phenyl]sulfonyl]-tetrahydro-pyran-2-yl]-5-(trifluoromethyl)-pyridine] | A (%-Inhibition >95%) | 
CCC1(S(=O)(=O)c2cccc(C(F)(F)F)c2)CCOC(c2ccc(C(F)(F)F)cn2)C1 (centres unmarked) [SC-108, 2-[4-Ethyl-4-[[3-(trifluoromethyl)phenyl]sulfonyl]-tetrahydro-pyran-2-yl]-5-(trifluoromethyl)-pyridine] | A (%-Inhibition >95%) | 
CCC1(S(=O)(=O)c2cccc(C(F)(F)F)c2)CCOC(c2ccc(C(F)(F)F)cn2)C1 (centres unmarked) [SC-109, 2-[4-Ethyl-4-[[3-(trifluoromethyl)phenyl]sulfonyl]-tetrahydro-pyran-2-yl]-5-(trifluoromethyl)-pyridine] | B (%-Inhibition >75% up to ≤95%) | 
Cc1ccc(OCC2CC(C)(S(=O)(=O)c3cccc(C(F)(F)F)c3)CCO2)cn1 (centres unmarked) [SC-114, 2-Methyl-5-[[4-methyl-4-[[3-(trifluoromethyl)phenyl]sulfonyl]-tetrahydro-pyran-2-yl]-methoxy]-pyridine] |  | 75 to 95
CC1(S(=O)(=O)c2cccc(C(F)(F)F)c2)CCOC(c2nnc(C3CC3)o2)C1 (centres unmarked) [SC-127, 2-Cyclopropyl-5-[4-methyl-4-[[3-(trifluoromethyl)phenyl]sulfonyl]-tetrahydro-pyran-2-yl]-[1,3,4]oxadiazole] |  | 40 to 75
CC1(S(=O)(=O)c2cccc(C(F)(F)F)c2)CCOC(c2nc(C3CC3)co2)C1 (centres unmarked) [SC-158, 4-Cyclopropyl-2-[4-methyl-4-[[3-(trifluoromethyl)phenyl]sulfonyl]-tetrahydro-pyran-2-yl]-oxazole] |  | > 95
CCC1(S(=O)(=O)c2cccc(C(F)(F)F)c2)CCOC(c2nc(C(F)(F)F)no2)C1 (centres unmarked) [SC-200, 5-[4-Ethyl-4-[[3-(trifluoromethyl)phenyl]sulfonyl]-tetrahydro-pyran-2-yl]-3-(trifluoromethyl)-[1,2,4]oxadiazole] |  | 75 to 95
CCC1(S(=O)(=O)c2cccc(C(F)(F)F)c2)CCOC(c2nc(C3CC3)no2)C1 (centres unmarked) [SC-202, 3-Cyclopropyl-5-[4-ethyl-4-[[3-(trifluoromethyl)phenyl]sulfonyl]-tetrahydro-pyran-2-yl]-[1,2,4]oxadiazole] |  | 75 to 95
CC1(S(=O)(=O)c2cccc(C(F)(F)F)c2)CCOC(c2cnc(C3CC3)nc2)C1 (centres unmarked) [SC-204, 2-Cyclopropyl-5-[4-methyl-4-[[3-(trifluoromethyl)phenyl]sulfonyl]-tetrahydro-pyran-2-yl]-pyrimidine] | B (%-Inhibition >75% up to ≤95%) | 
CC1(S(=O)(=O)c2cccc(C(F)(F)F)c2)CCOC(c2cnc(C3CC3)nc2)C1 (centres unmarked) [SC-205, 2-Cyclopropyl-5-[4-methyl-4-[[3-(trifluoromethyl)phenyl]sulfonyl]-tetrahydro-pyran-2-yl]-pyrimidine] |  | > 95
CCC1(S(=O)(=O)c2cccc(C(F)(F)F)c2)CCOC(c2nnc(C3CC3)o2)C1 (centres unmarked) [SC-206, 2-Cyclopropyl-5-[4-ethyl-4-[[3-(trifluoromethyl)phenyl]sulfonyl]-tetrahydro-pyran-2-yl]-[1,3,4]oxadiazole] |  | 40 to 75
CC1(S(=O)(=O)c2cccc(C(F)(F)F)c2)CCOC(COc2ccc(C(F)(F)F)nc2)C1 (centres unmarked) [SC-208, 5-[[4-Methyl-4-[[3-(trifluoromethyl)phenyl]sulfonyl]-tetrahydro-pyran-2-yl]-methoxy]-2-(trifluoromethyl)-pyridine] |  | 75 to 95
CC1(S(=O)(=O)c2cccc(C(F)(F)F)c2)CCOC(COc2ccc(C(F)(F)F)nc2)C1 (centres unmarked) [SC-209, 5-[[4-Methyl-4-[[3-(trifluoromethyl)phenyl]sulfonyl]-tetrahydro-pyran-2-yl]-methoxy]-2-(trifluoromethyl)-pyridine] | A (%-Inhibition >95%) | 
CC1(S(=O)(=O)c2cccc(S(C)(=O)=O)c2)CCOC(c2ncc(C(F)(F)F)cc2S(C)(=O)=O)C1 (centres unmarked) [SC-210, 2-[4-Methyl-4-[(3-methylsulfonyl-phenyl)sulfonyl]-tetrahydro-pyran-2-yl]-3-methylsulfonyl-5-(trifluoromethyl)-pyridine] |  | > 95
CC1(S(=O)(=O)c2cccc(C(F)F)c2)CCOC(c2ncc(C(F)(F)F)cc2S(C)(=O)=O)C1 (centres unmarked) [SC-212, 2-[4-[[3-(Difluoro-methyl)-phenyl]sulfonyl]-4-methyl-tetrahydro-pyran-2-yl]-3-methylsulfonyl-5-(trifluoromethyl)-pyridine] |  | 75 to 95
CC1(S(=O)(=O)c2cc(F)cc(C(F)(F)F)c2)CCOC(c2ncc(S(C)(=O)=O)cc2Cl)C1 (centres unmarked) [SC-214, 3-Chloro-2-[4-[[3-fluoro-5-(trifluoromethyl)-phenyl]sulfonyl]-4-methyl-tetrahydro-pyran-2-yl]-5-methylsulfonyl-pyridine] | C (%-Inhibition >40% up to ≤75%) | 
CC1(S(=O)(=O)c2cc(F)cc(C(F)(F)F)c2)CCOC(c2ncc(S(C)(=O)=O)cc2Cl)C1 (centres unmarked) [SC-215, 3-Chloro-2-[4-[[3-fluoro-5-(trifluoromethyl)-phenyl]sulfonyl]-4-methyl-tetrahydro-pyran-2-yl]-5-methylsulfonyl-pyridine] | B (%-Inhibition >75% up to ≤95%) | 
CC1(S(=O)(=O)c2cc(F)cc(C(F)F)c2)CCOC(c2ncc(S(C)(=O)=O)cc2Cl)C1 (centres unmarked) [SC-216, 3-Chloro-2-[4-[[3-(difluoro-methyl)-5-fluoro-phenyl]sulfonyl]-4-methyl-tetrahydro-pyran-2-yl]-5-methylsulfonyl-pyridine] |  | 40 to 75
